This note sets out measurements from patent US20050250945A1, “Triazine compounds as inhibitors of bacterial type III protein secretion systems” (priority 2004, published 2005).

Common to all, as to assay type: cell-based
For assay [1], the system named is SPI1 type III protein secretion system (SopE‘-’Bla secretion). The assay can be described thus: Primary assay: Type III protein secretion of the chimeric SopE‘-’Bla polypeptide (nitrocefin hydrolysis). Conditions: Salmonella enterica, read-out: SopE IC50(uM). The source says:
Primary assay: Type III protein secretion of the chimeric SopE‘-’Bla polypeptide by Salmonella enterica. This procedure is a cell-based assay that measures the type III-dependent secretion by Salmonella enterica of a plasmid-encoded chimeric polypeptide whose synthesis can be regulated, and which is endowed with an enzymatic activity that can be monitored colorimetrically by hydrolysis of a substrate that is unable to penetrate into the bacterial cytoplasm within the time constraints of the reaction. Thus, the colorimetric reaction is not influenced by SopE‘-’Bla polypeptide in the bacterial cytoplasm. Instead, it effectively measures the amount of polypeptide that has been secreted from the S. enterica cytoplasm to the extracellular medium via type III system protein secretion.
The SopE‘-’Bla recombinant polypeptide consists of two functionally distinct domains spliced together. The N-terminus domain is encoded by a polynucleotide region specifying the signal for type III secretion of the SopE polypeptide of S. enterica, an effector of the SPI1 type III protein secretion system. The C-terminus domain of SopE‘-’Bla consists of a 263 amino acid peptide sequence that corresponds to the TEM-1 β-lactamase expressed by plasmid pBR322 but without its N-terminal signal sequence. The TEM-1 β-lactamase part of the SopE‘-’Bla chimeric polypeptide is used as a reporter enzyme. It is capable of hydrolyzing nitrocefin resulting in a product whose accumulation can be monitored by colorimetric detection. The secretion of the SopE‘—’Bla chimeric polypeptide from the cytoplasm to the extracellular medium is dependent on type III protein secretion.
For this procedure, cells grown under conditions known to favor a functional SPI1 secretion system are induced for expression of the SopE‘-’Bla protein and grown either in the presence or in the absence of putative inhibitors for determined time. Nitrocefin is then added to the various cultures and its hydrolysis are used for quantitation. An inhibitor of Type III protein secretion is generally a compound that reduces the signal of the enzymatic reaction by decreasing the amount of SopE‘-’Bla secreted into the extracellular medium.

Assay [2] has as its system type III protein secretion system of P. aeruginosa PA103 (ExoU secretion). The assay can be described thus: Tertiary assay: Type III-dependent secretion of ExoU by P. aeruginosa PA103 (SDS-PAGE band quantitation). To be noted: Pseudomonas aeruginosa; P. aeruginosa PA103, ExoU secreted into extracellular medium. From the text:
Tertiary assay: Inhibition of Type III protein secretion of effectors from a Pseudomonas aeruginosa system. Type III protein secretion is used by P. aeruginosa to secrete several essential virulence determinants. One effector of the type III protein secretion system of P. aeruginosa PA103 is the virulence determinants ExoU.
The amount of Type III-dependent secretion of ExoU by P. aeruginosa PA103 can be determined in a cell-based assay by quantification of the 73.9 kDa ExoU protein secreted into the extracellular medium. Such quantitation can be achieved by growing strain PA103 in a deferrated medium in the presence of nitrilotriacetic acid (an inducer of Type III protein secretion in P. aeruginosa) and either in the presence or absence of putative inhibitors. After a prolonged growth period, the cells are sedimented and the supernatants concentrated by ammonium sulfate precipitation. The proteins in the resuspended pellets are separated by electrophoresis on SDS-polyacrylamide gels. After staining gels with Colloidal Blue™, the 73.9 kDa ExoU band is quantitated by scanning through an imager. The effects of inhibitors on the intensity of the ExoU band may be measured relative to that of untreated controls.

Assay [3] concerns SPI1 type III protein secretion system (SipB secretion). The assay can be described thus: Secondary assay: Type III-dependent protein secretion of the SipB polypeptide (immunoblot). Conditions: Salmonella enterica, read-out: SipB IC50(uM). As to the method:
Secondary assay: Type III-dependent protein secretion of the SipB polypeptide by S. enterica. The SipB protein of S. enterica is another effector of the SPI1 type III protein secretion system from S. enterica. In this cell-based procedure, the Type III-dependent secretion of SipB from the bacterial cytoplasm to the extracellular medium was measured through its reactivity with a cognate mouse monoclonal.
Salmonella enterica cells growing either in the presence or in the absence of inhibitors are induced for the production of SipB. Following an established period of growth the cells are sedimented and the amount of SipB present in the supernatant is quantified with a scanning imager following application of immunoblot techniques. Detection may employ an anti-SipB mouse monoclonal antibody (e.g., obtained from Jorge Galan, SUNY at Stony Brook, N.Y.) followed by treatment with commercially available sheep anti-mouse polyclonal antibody conjugated with horseradish peroxidase. Thereafter the membrane is treated with a peroxidase chemiluminescent substrate and exposed to film for an appropriate exposure time. Inhibition may be measured relative to untreated controls.

A value given as a limit tells only on which side of the number the result lay.

As a reminder, the IC50 is the concentration that inhibits the measured activity by half. Turning to `O=C(O)[C@H](CSCc1ccccc1)Nc1nc(Nc2ccc(C(F)(F)F)cc2)nc(-c2ccc(OC(F)(F)F)cc2)n1` [Compound 19, (R)-3-Benzylsulfanyl-2-[4-(4-trifluoromethoxyphenyl)-6-(4-trifluoromethyl-phenylamino)[1,3,5]triazin-2-yl-amino]propionic acid], the IC50 in assay [1] turned out to be 3.2 µM. Still for that read-out and setting: for `O=C(O)[C@H](CSCc1ccccc1)Nc1nc(Nc2ccc(C(F)(F)F)cc2)nc(-c2ccc(O)cc2)n1` [Compound 31, (R)-3-Benzylsulfanyl-2-[4-(4-hydroxyphenyl)-6-(4-trifluoromethylphenylamino)-[1,3,5]triazin-2-yl-amino]propionic acid] the value was 9.1 µM; for `O=C(O)[C@H](CSCc1ccccc1)Nc1nc(Nc2ccc(C(F)(F)F)cc2)nc(-c2cccc(F)c2)n1` [Compound 23, (R)-3-Benzylsulfanyl-2-[4-(3-fluorophenyl)-6-(4-trifluoromethylphenylamino)-[1,3,5]triazin-2-yl-amino]propionic acid], 4.2 µM. Turning to `O=C(O)[C@H](CSCc1ccccc1)Nc1nc(Nc2ccc(C(F)(F)F)cc2)nc(-c2ccccc2F)n1` [Compound 28, (R)-3-Benzylsulfanyl-2-[4-(2-fluorophenyl)-6-(4-trifluoromethylphenylamino)-[1,3,5]triazin-2-yl-amino]propionic acid], the IC50 in assay [2] was more than 100 µM; in assay [1], 6.7 µM.

For `O=C(O)[C@H](CSCc1ccccc1)Nc1nc(Nc2ccc(C(F)(F)F)cc2)nc(-c2cccc(C(F)(F)F)c2)n1` [Compound 21, (R)-3-Benzylsulfanyl-2-[4-(3-trifluoromethylphenyl)-6-(4-trifluoromethyl-phenylamino)[1,3,5]triazin-2-yl-amino]propionic acid], the half-inhibitory concentration (IC50) in assay [1] was found to be 4.1 µM. On the same count and under the same terms, for `O=C(O)[C@H](CSCc1ccccc1)Nc1nc(Nc2ccc(C(F)(F)F)cc2)nc(-c2ccccc2)n1` [Compound 24, (R)-3-Benzylsulfanyl-2-[4-phenyl-6-(4-trifluoromethylphenylamino)[1,3,5]triazin-2-yl-amino]propionic acid] the value was 4.4 µM; for `CN(C)c1ccc(-c2nc(Nc3ccc(C(F)(F)F)cc3)nc(N[C@@H](CSCc3ccccc3)C(=O)O)n2)cc1` [Compound 30, (R)-3-Benzylsulfanyl-2-[4-(4-dimethylaminophenyl)-6-(4-trifluoromethyl-phenylamino)[1,3,5)triazin-2-yl-amino]propionic acid], 8.5 µM. As to `O=C(O)[C@H](CSCc1ccccc1)Nc1nc(Nc2ccc(C(F)(F)F)cc2)nc(-c2cc(F)cc(F)c2)n1` [Compound 29, (R)-3-Benzylsulfanyl-2-[4-(3,5-difluorophenyl)-6-(4-trifluoromethylphenylamino)[1,3,5]triazin-2-yl-amino]propionic acid], the IC50 in assay [1] came out at 7.4 µM. Turning to `O=C(O)[C@H](CSCc1ccccc1)Nc1nc(Nc2ccc(C(F)(F)F)cc2)nc(-c2ccc(Oc3ccccc3)cc2)n1` [Compound 12, (R)-3-Benzylsulfanyl-2-[4-(4-phenoxyphenyl)-6-(4-trifluoromethylphenylamino)[1,3,5]triazin-2-yl-amino]propionic acid], the IC50 in assay [2] is more than 100 µM; in assay [1], 1.1 µM. For the compound `O=C(O)[C@H](CSCc1ccccc1)Nc1nc(Nc2ccc(C(F)(F)F)cc2)nc(-c2ccc(Cl)cc2)n1` [Compound 15, (R)-3-Benzylsulfanyl-2-[4-(4-chlorophenyl)-6-(4-trifluoromethylphenylamino)-[1,3,5]triazin-2-yl-amino]propionic acid], the half-maximal inhibitory concentration (IC50) in assay [1] turned out to be 1.9 µM.

For `O=C(O)[C@H](C[S+]([O-])Cc1ccccc1)Nc1nc(-c2ccc(F)cc2)nc(N2CCc3ccccc3C2)n1` (stereo partly drawn) [Compound 9, (R)-2-[4-(3,4-Dihydro-1H-isoquinolin-2-yl)-6-(4-fluorophenyl)[1,3,5]triazin-2-yl-amino]-3-phenylmethanesulfinylpropionic acid], the IC50 was more than 100 µM in assay [3] and 42.6 µM in assay [1]. For the compound `O=C(O)[C@H](CSCc1ccccc1)Nc1nc(Nc2ccc(C(F)(F)F)cc2)nc(-c2ccc(C(F)(F)F)cc2)n1` [Compound 16, (R)-3-Benzylsulfanyl-2-[4-(4-trifluoromethylphenyl)-6-(4-trifluoromethyl-phenylamino)[1,3,5]triazin-2-yl-amino]propionic acid], the IC50 in assay [1] stood at 2 µM.

Consider `O=C(O)[C@H](CSCc1ccccc1)Nc1nc(Nc2ccc(C(F)(F)F)cc2)nc(-c2cccc3ccccc23)n1` [Compound 18, (R)-3-Benzylsulfanyl-2-[4-naphthalen-1-yl-6-(4-trifluoromethylphenylamino)-[1,3,5]triazin-2-yl-amino]propionic acid], for which the IC50 in assay [1] is 2.5 µM. `O=C(O)[C@H](CSCc1ccccc1)Nc1nc(Nc2ccc(C(F)(F)F)cc2)nc(-c2ccc3ccccc3c2)n1` [Compound 20, (R)-3-Benzylsulfanyl-2-[4-naphthalen-2-yl-6-(4-trifluoromethylphenylamino)-[1,3,5]triazin-2-yl-amino]propionic acid]: the IC50 was more than 100 µM in assay [2] and 3.3 µM in assay [1].

`O=C(O)[C@H](CSCc1ccccc1)Nc1nc(Nc2ccc(C(F)(F)F)cc2)nc(-c2ccc(F)cc2)n1` [Compound 25, (R)-3-Benzylsulfanyl-2-[4-(4-fluorophenyl)-6-(4-trifluoromethylphenylamino)-[1,3,5]triazin-2-yl-amino]propionic acid]: the half-maximal inhibitory concentration (IC50) in assay [1] is 4.7 µM. On the same count and under the same terms, for `O=C(O)[C@H](CSCc1ccccc1)Nc1nc(Nc2ccc(C(F)(F)F)cc2)nc(-c2ccc(Cl)c(Cl)c2)n1` [Compound 13, (R)-3-Benzylsulfanyl-2-[4-(3,4-dichlorophenyl)-6-(4-trifluoromethylphenylamino)-[1,3,5]triazin-2-yl-amino]propionic acid] the value was 1.25 µM. Still for that read-out and setting: for `CC(C)Oc1ccc(-c2nc(Nc3ccc(C(F)(F)F)cc3)nc(N[C@@H](CSCc3ccccc3)C(=O)O)n2)cc1` [Compound 22, (R)-3-Benzylsulfanyl-2-[4-(4-isopropoxyphenyl)-6-(4-trifluoromethyl-phenylamino)[1,3,5]triazin-2-yl-amino]propionic acid] the value was 4.1 µM.

As for `O=C(O)[C@H](CSCc1ccccc1)Nc1nc(Nc2ccc(C(F)(F)F)cc2)nc(-c2ccc(Br)cc2)n1` [Compound 14, (R)-3-Benzylsulfanyl-2-[4-(4-bromophenyl)-6-(4-trifluoromethylphenylamino)-[1,3,5]triazin-2-yl-amino]propionic acid], the concentration for half-maximal inhibition (IC50) in assay [1] came out at 1.7 µM. Consider `O=C(O)[C@H](CS(=O)(=O)Cc1ccccc1)Nc1nc(-c2ccc(F)cc2)nc(N2CCc3ccccc3C2)n1` [Compound 11, (R)-2-[4-(3,4-Dihydro-1H-isoquinolin-2-yl)-6-(4-fluorophenyl)[1,3,5]triazin-2yl-amino]-3-phenyl-methanesulfonyl propionic acid], for which the IC50 was more than 100 µM in assay [3] and 86 µM in assay [1].

Turning to `O=C(O)[C@H](CSCc1ccccc1)Nc1nc(Nc2ccc(C(F)(F)F)cc2)nc(-c2ccccc2Oc2ccccc2)n1` [Compound 17, (R)-3-Benzylsulfanyl-2-[4-(2-phenoxyphenyl)-6-(4-trifluoromethylphenylamino)[1,3,5]triazin-2-yl-amino]propionic acid], in assay [1], the IC50 is 2.5 µM.
